Data from patent US6436365B2, “Process for therapeutic treatment of proliferative diseases” (Schering Aktiengesellschaft, priority 1997, dated 2002).

Tests used:
[1] = Topical administration via coronary perfusion/infusion catheter on arteriosclerotic lesion in the carotid artery, gamma camera measurement of activity at the lesion; assay type: in vivo, white New Zealand rabbit; conditions: for % of the dose at the lesion (activity at the lesion as proportion of total activity in the animal): Example 1, rabbit no. 1708, 0.48 mCi in 0.85 ml; for % of the dose at the lesion (activity in the lesion as proportion of total activity in the animal): Example 2, rabbit no. 1856, 1.91 mCi in 1.0 ml
Description: The test animal, a white New Zealand rabbit (internal animal identification no.: 1708, male, 3.7 kg of body weight), was prepared 4 weeks before the actual administration experiment:
Under anesthesia (Rompun/Ketavet 1:2, 1 ml/kg of body weight, i.m. administration), the endothelium was damaged with a 2F Fogarthy balloon catheter in the arteria carotis dextra (balloon denudation). Then, the animal received a special diet with an addition of 0.2% cholesterol. The test animal developed an arteriosclerotic lesion on the balloon-denuded spot created by this pretreatment.
(§1) Topical administration of HMPAO that was labeled with technetium 99m was carried out on the anesthetized test animal (anesthesia type s.o.) via a coronary perfusion/infusion catheter (dispatch 3.0, Xtra slippery coating, manufacturer: Boston Scientific Corporation, Ratingen) directly on the lesion in the carotid artery. The radioactive dose of 0.48 mCi (=17.76 MBq) was administered in a volume of 0.85 ml.
(§2) During the entire experiment, the test animal was under a gamma camera (Elscint SP4 HR) to measure the dispersion of radioactivity in the body. The activity at the lesion was set as a proportion of the total activity (measured at this time in the animal). In the case of this test animal, there was found:
The test animal, a white New Zealand rabbit (internal animal identification no.: 1856, male, 3.3 kg of body weight), was prepared 4 weeks before the actual administration experiment as follows:
as §1, with “The topical administration” for “Topical administration”, “of the” for “of”, “of 1.91” for “of 0.48”, “mCi (=70.67” for “mCi (=17.76”, “of 1.0 ml (flushing with 0.3 ml of physiological saline solution).” for “of 0.85 ml.”
During the entire experiment, the test animal was under a gamma camera (Elscint SP4 HR) to measure the dispersion of radioactivity in the body. The activity in the lesion was set as a proportion of the total activity (measured at this time in the animal).

[2] = Topical administration via microperforated balloon catheter after balloon denudation of the infraranal aorta, gamma camera measurement of activity in the lesion; assay type: in vivo, white New Zealand rabbit
Description: The test animal was a white New Zealand rabbit (internal animal identification no.: 1584, male, 3.4 kg of body weight).
(§3) Under anesthesia (Rompun/Ketavet 1:2, 1 ml/kg of body weight, i.m. administration), the endothelium was damaged with a balloon catheter in the infraranal aorta (balloon denudation). Then, over a period of 5 minutes, technetium 99m-labeled HMPAO was administered to the test animal via a microperforated balloon catheter (4 mm Match-35 PTA, Schneider Company, FRG). The radioactive dose of 0.64 mCi (=23.68 MBq) was administered in a volume of 1 ml.
as §2, with “activity in” for “activity at”
The test animal was a white New Zealand rabbit (internal animal identification no.: 1587, male, 3.5 kg of body weight).
as §3, with “1.18” for “0.64”, “(=43.66” for “(=23.68”
The test animal was a white New Zealand rabbit (internal animal identification no.: 1586, male, 3.3 kg of body weight).
as §3, with “0.45” for “0.64”, “(=16.65” for “(=23.68”

SMILES: C/C(=N\O)C(C)NCC(C)(C)CNC(C)/C(C)=N/O (stereo not drawn) [Example 99mTc-HMPAO, metal not drawn]
- % of the dose at the lesion (activity at the lesion as proportion of total activity in the animal) ([1]; 5 minutes post administration): 55.38%
- % of the dose at the lesion (activity in the lesion as proportion of total activity in the animal) ([1]; 5 minutes post administration): 40.74%
- % of the dose at the lesion (activity at the lesion as proportion of total activity in the animal) ([1]; 4 hours post administration): 46.78%
- % of the dose at the lesion (activity in the lesion as proportion of total activity in the animal) ([1]; 4 hours post administration): 35.13%
- % of the dose at the lesion (activity at the lesion as proportion of total activity in the animal) ([1]; 24 hours post administration): 21.45%
- % of the dose at the lesion (activity in the lesion as proportion of total activity in the animal) ([1]; 24 hours post administration): 23.69%
- % of the dose at the lesion (activity in the lesion as proportion of total activity in the animal) ([2]; 5 minutes post administration, Example 3, rabbit no. 1584, 0.64 mCi in 1 ml): 38.45%
- % of the dose at the lesion (activity in the lesion as proportion of total activity in the animal) ([2]; 5 minutes post administration, Example 4, rabbit no. 1587, 1.18 mCi in 1 ml): 37.06%
- % of the dose at the lesion (activity in the lesion as proportion of total activity in the animal) ([2]; 5 minutes post administration, Example 5, rabbit no. 1586, 0.45 mCi in 1 ml): 45.56%
- % of the dose at the lesion (activity in the lesion as proportion of total activity in the animal) ([2]; 4 hours post administration, Example 3, rabbit no. 1584, 0.64 mCi in 1 ml): 35.64%
- % of the dose at the lesion (activity in the lesion as proportion of total activity in the animal) ([2]; 4 hours post administration, Example 4, rabbit no. 1587, 1.18 mCi in 1 ml): 32.03%
- % of the dose at the lesion (activity in the lesion as proportion of total activity in the animal) ([2]; 4 hours post administration, Example 5, rabbit no. 1586, 0.45 mCi in 1 ml): 36.39%
- % of the dose at the lesion (activity in the lesion as proportion of total activity in the animal) ([2]; 24 hours post administration, Example 3, rabbit no. 1584, 0.64 mCi in 1 ml): 16.63%
- % of the dose at the lesion (activity in the lesion as proportion of total activity in the animal) ([2]; 24 hours post administration, Example 4, rabbit no. 1587, 1.18 mCi in 1 ml): 20.01%
- % of the dose at the lesion (activity in the lesion as proportion of total activity in the animal) ([2]; 24 hours post administration, Example 5, rabbit no. 1586, 0.45 mCi in 1 ml): 15.24%
